Source: a melting point compilation (Tetko et al.)

Structure (SMILES)	melting point [°C]
Fc1ncccc1OCc1ccccc1	34 to 36
Brc1ccc(C2CNCCO2)cc1 (centres undefined)	53 to 55
CC(C)(C)OC(=O)N1C2CCC1C(C(=O)O)C2 (centres undefined)	144 to 146
CC(=O)c1ccc(N2CCOCC2)c(F)c1	84 to 86
O=C(CNCc1ccc(Cl)cc1)Nc1ccccc1F	90 to 92
COc1cc(C=O)cc(OC)c1OCc1ccccc1	62 to 64
O=c1cc2c(n[nH]1)CCCC2	192 to 194
Nc1ccc(Br)c(C(=O)O)c1	171 to 179
O=C(O)c1c(F)cccc1Br	153 to 155
CC1(c2ccc3ccccc3c2)NC(=O)NC1=O (centres undefined)	190 to 192
BrCc1cc(Br)cc2cccnc12	140 to 142
Nn1c(S)nnc1-c1ccccc1Br	188 to 190
NC(=O)NCCCCCC(=O)O	175 to 177
c1cc(C2CCNCC2)[nH]n1	146 to 148
O=C(O)c1cccc(S(=O)(=O)N2CCCC2)c1	157 to 159
NNc1ccnc(F)c1	98 to 100
O=C(CC1CCCCC1)NCCC1CNc2ccccc21 (centres undefined)	124 to 126
Cc1cc(N2CCCC2=O)ccc1Br	107 to 109
CC(C)NC(=O)C(C)Cl (centres undefined)	89 to 91
COc1ccc(Cn2[nH]ccc2=N)c(OC)c1	76 to 78
Cc1noc(-c2ccc([N+](=O)[O-])c(C)c2)n1	132 to 134
O=C(CCCc1cccs1)Nc1cccc(C(=O)O)c1	198 to 200
O=C(O)CC1NC(=O)N(c2ccc(F)cc2)C1=O (centres undefined)	224 to 226
COC(=O)C(=O)CC(=O)c1ccc(Br)cc1	104 to 106
CC(C)c1nnc(S)n1C1CC1	146 to 148

Structure (SMILES)	melting point [°C]
Cc1ccc(C(=O)NCCC(=O)O)c(O)c1	159 to 161
Sc1nnc(Nc2ccccc2Cl)s1	174 to 176
CCCCCCCCCC(=O)N[C@@H](CCC(N)=O)C(=O)O	129 to 131
Cn1c(CO)nc2ccccc21	144 to 146
Cn1ccc(C(=O)NC2(C(=O)O)CCCCCC2)cc1=O	242 to 244
Oc1ccc2nccnc2c1	225 to 227
C=CC(=O)Nc1cccc(Br)c1	122 to 124
CC(CC(=O)O)C1CCNCC1 (centres undefined)	255 to 257
Nc1ccc(-c2cn3ccccc3n2)cc1	118 to 120
Nc1nc(-c2nc3ccccc3s2)cs1	248 to 250
COc1ccc(Cl)cc1C(C)=O	33 to 35
Cn1c(Cl)cnc1CC(N)=S	142 to 144
O=C(O)CCOc1ccc(Cl)cc1[N+](=O)[O-]	127 to 129
CC(=O)Nc1cc2ccccc2cc1C(=O)O	190 to 192
CC(C)c1nnc(C(C)C)[nH]1	147 to 149
CC(O)c1cn(-c2ccccc2)nn1 (centres undefined)	75 to 77
CCOc1cc(C(N)=NO)cc(Br)c1O	157 to 159
O=C(CCl)Nc1cccnc1	179 to 181
NC(=O)COc1cccc(CCl)c1	114 to 116
O=C(O)c1cc(S(=O)(=O)Cl)c(Cl)cc1Cl	158 to 162
CC1(C)CC(=O)c2sc(N)nc2C1	212 to 214
Cc1nnc(NN)[nH]c1=O	237 to 239
Cc1cc(C(=O)O)cc(S(N)(=O)=O)c1C	266 to 268
CC1CCC(Nc2ccccn2)CC1 (centres undefined)	149 to 151
O=C(c1cccnc1)c1ccc2c(c1)CCO2	108 to 110

Structure (SMILES)	melting point [°C]
OCC(NCc1ccccc1)C1CC1 (centres undefined)	56 to 58
Nc1ccccc1-n1ccc(C(=O)O)n1	136 to 138
CS(=O)(=O)c1ccc(CNC(=O)CCl)cc1	142 to 144
Nc1ccc(Cc2nc3ccccc3s2)cc1	219 to 221
CCCOc1ccc(NS(C)(=O)=O)cc1	118 to 120
Cc1c(Cl)cccc1Nc1nnc(S)s1	189 to 191
Nc1c(Cl)ncnc1NC1CC1	139 to 141
NC(=O)CCCC(=O)O	83 to 85
CC(=O)Nc1cccc(NC(=O)C2CCNCC2)c1	199 to 201
Cc1c(C)c(C)c(S)c(C)c1C	62 to 64
Nc1ccc(S(=O)(=O)Nc2cccc(F)c2)cc1	168 to 170
Cc1cc(C)c(C(=O)O)cc1N	203 to 205
O=S(=O)(c1cccs1)N1CCNCC1	98 to 100
NCC(O)C1CC1 (centres undefined)	34 to 36
O=C(O)c1occc1COc1ccccc1	129 to 131
Cc1cc(C(=O)O)ccc1-n1cncn1	242 to 244
CC(=O)C(Cl)C(=O)Nc1ccccc1 (centres undefined)	101 to 104
CC(COc1ccccc1)C(=O)O (centres undefined)	84 to 86
O=Cc1ccc2cn[nH]c2c1	179 to 181
CC(C)(O)COc1ccc(N)cc1	55 to 57
CCc1n[nH]c(C(=O)O)c1Cl	199 to 201
NC(=O)Nc1ccc(C(=O)O)cc1	296 to 298
CC(C)(C)c1ccc(C(=O)N=C=S)cc1	33 to 35
CNS(=O)(=O)c1cc(Br)ccc1C	105 to 107
O=C1Nc2ccccc2C1=NO	242 to 244

Structure (SMILES)	melting point [°C]
O=C(O)CCSc1ccc(Cl)cc1	85 to 87
O=C(O)CCNS(=O)(=O)c1cccc([N+](=O)[O-])c1	134 to 136
Nc1c(-c2ccccc2)ncn1N	126 to 128
Cc1ccc(-c2csc(CN)n2)cc1	72 to 74
O=C(O)CC1=NNC(=O)C1	195 to 197
COc1cc(OC)c(NC(=O)OCC(F)(F)F)cc1Cl	87 to 89
c1ccc2[nH]c(-c3ccncc3)cc2c1	208 to 210
CC(=O)c1cccc(-c2ccncc2)c1	64 to 66
CC(Cc1ccc(Cl)cc1Cl)C(=O)O (centres undefined)	49 to 51
O=Cc1ccc(N2CCNCC2)s1	59 to 63
Cc1c(N)cccc1S(C)(=O)=O	117 to 119
Cn1cc(C#N)ccc1=O	159 to 161
O=C(O)c1cc(Br)nn1-c1ccc(F)cc1	177 to 179
O=c1nc(Cl)sc2ccccc12	108 to 110
Cc1cc(O)cc(C(C)C)c1	49 to 51
Cc1ccc(N(C)C(C)C)c(C(=O)O)c1	69 to 71
Nc1nc(-c2ccc(Cl)s2)ns1	151 to 153
Cn1cc(-c2cncc(C(=O)O)c2)cn1	260 to 262
Nc1cc(Cl)n[nH]1	93 to 95
O=C(Nc1ccc(O)cc1)c1cccs1	166 to 168
COCCOc1cccc(CC(=O)O)c1	47 to 49
O=C(O)c1ccc2cccnn12	132 to 134
Cc1nn(-c2ccccc2)c(Cl)c1CO	89 to 91
Nc1ccccc1C(=O)NC1CC1	135 to 136
O=[N+]([O-])c1ccc(CCl)c(Cl)c1	50 to 52

Structure (SMILES)	melting point [°C]
Clc1cc2nnc(-c3ccccc3)n2cn1	155 to 157
Cc1cccc(-c2nnc(CO)o2)c1	82 to 84
O=C(O)c1cc(Br)c2c(c1)OCO2	251 to 253
O=C(NCc1ccccc1)OCC(F)(F)F	62 to 66
CCOC(=O)c1ccc(C(=O)O)nc1C	88 to 90
O=C(O)c1cccn2ccnc12	266 to 268
COC(=O)c1ccnc(Cl)c1	31 to 33
Cc1ccccc1Nc1nc(N)nc(CCl)n1	203 to 207
Cn1nc(C(=O)NN)c2ccccc2c1=O	134 to 136
COc1ccc(Cn2cnc(N)n2)cc1	129 to 131
Nc1ncc(Cc2ccc(Cl)cc2)s1	127 to 129
CCOc1nnc(-c2ccccc2)n1-c1ccccc1	154 to 156
O=C1NC(=O)C2(CCOc3ccccc32)N1 (centres undefined)	120 to 122
CNC(=O)CNc1cccc(OC)c1	78 to 80
CCn1c(=O)[nH]c2ccccc21	120 to 124
NCC(=O)Nc1ccccc1-n1cncn1	118 to 120
O=C(O)c1ccccc1OCc1cccnc1	160 to 162
Nc1ccc(NC(=O)c2ccccc2I)cc1	143 to 145
OC(CC1COCCN1)c1ccccc1 (centres undefined)	74 to 76
O=C1C2C3CC4C5C3C1C5C1(OCCO1)C42 (centres undefined)	73 to 75
Nc1ccc(Sc2ccncc2)cc1	169 to 171
Cn1cc(C=O)c(-c2ccc3c(c2)OCCCO3)n1	99 to 101
NS(=O)(=O)c1cnn(-c2ccccc2)c1	196 to 198
O=C1CCCc2c1sc1ccccc21	113 to 115
Nc1nc(-c2cc(Br)cs2)cs1	149 to 151

Structure (SMILES)	melting point [°C]
CCOc1nnc(Cl)c2ccccc12	80 to 82
Nc1cnc(Cl)cc1C(=O)O	289 to 291
Cc1nc(C)c(C(=O)O)o1	219 to 221
CC(=O)NCC(=O)NCC(=O)O	174 to 176
CCC1=C(C(=O)O)Cc2ccccc2O1	223 to 225
FC(F)(F)Cn1c(S)nnc1N1CCOCC1	175 to 177
CC(C)(C)OC(=O)N1CCCCC1C#N (centres undefined)	62 to 66
O=c1ccc2c([nH]1)CCC2	35 to 39
CC(=O)c1c(C)[nH]c(N=Nc2cccc(C(=O)O)c2)c1C	203 to 205
CC(c1ccccc1)C(O)C(=O)O (centres undefined)	115 to 117
NCCNc1ccncc1	118 to 120
O=C(O)c1nn(-c2ccccc2C(F)(F)F)cc1O	141 to 145
O=C(CCl)Nc1ccc(O)cc1	145 to 147
N#Cc1c(C(=O)O)cc(C2CC2)[nH]c1=S	258 to 260
Cc1cc(Cl)ncc1O	168 to 170
CC(C)Cc1cc(C(=O)O)cc(O)n1	235 to 237
COCCN(C(C)=O)c1nc(CCl)cs1	98 to 100
Cc1cc([N+](=O)[O-])c(Cl)cc1F	43 to 45
NC(CC(=O)Nc1ccccc1)=NO	156 to 158
Cc1nc(O)c2cc(Br)ccc2n1	219 to 221
CN(CC(=O)O)C(=O)Nc1cccc2ccccc12	126 to 128
O=C1C(=O)N(Cc2ccc(Br)cc2)c2ccccc21	182 to 184
Nc1cc(Br)c(S(N)(=O)=O)cc1[N+](=O)[O-]	268 to 270
Nc1cc([N+](=O)[O-])c(F)cc1F	98 to 100
